Results taken from article PMC3665789 (PLoS ONE, 2013).

Legend:
HIV-2 ROD (R5/X4) = conditions: read-out: EC50 (µM ± SEM), PBMCs, p27 HIV-2 Ag ELISA
[1] = test system: HIV-1 CI#17 (clinical isolate; X4); conditions: PBMCs; CI#17, group M subtype B; p24 Ag ELISA
[2] = test system: HIV-1 UG270 (clinical isolate; X4); conditions: PBMCs; UG270, group M subtype D; p24 Ag ELISA
CCR5 = biological target: T1, CCR5 (Homo sapiens, UniProt P51681); assay: Intracellular calcium mobilization (FLIPR), U87.CD4.CCR5 cells; assay type: cell-based; conditions: 9.6 µM
T1 construct: expressed in transfected cells; host or cells: U87.CD4.CCR5 (human astroglioma U87)
Description: Calcium (Ca^2+) mobilization assays were performed by the use of a fluorometric imaging plate reader (FLIPR) (Molecular Devices, Sunnyvale, CA) as described previously. Briefly, U87.CD4.CCR5 or U87.CD4.CXCR4 cells were digested by trypsin and seeded in gelatine-coated black-wall 96-well microplates at 2×10^4 cells per well. The next day, the cells were loaded with the fluorescent calcium indicator Fluo-3 acetoxymethyl ester (Molecular Probes, Leiden, The Netherlands) at 4 µM for 45 min at 37°C. Cells were washed 3 times in assay buffer (Hanks’ balanced salt solution with 20 mM HEPES buffer and 0.2% bovine serum albumin, pH 7.4) and incubated for 10 min with Laby A1. The intracellular calcium mobilization induced by LD78β in U87.CD4.CCR5 cells or by SDF-1 in U87.CD4.CXCR4 cells was then measured at 37°C by monitoring the fluorescence as a function of time simultaneously in all the wells. In addition, potential intracellular calcium mobilization induced by Laby A1 was also investigated.

HIV-1 NL4.3 = assay: Pre-incubation of MT-4 cells with compound, wash, then HIV-1 NL4.3 infection; assay type: cell-based; conditions: MT-4 cells pre-incubated 2 h at 37°C, washed, infected with HIV-1 NL4.3; 5 days; control 100% CPE
R5 HIV-1 gp120 ADA = assay: Surface plasmon resonance; assay type: binding; conditions: SPR, immobilized gp120 ADA, 25°C
Description: Recombinant gp120 proteins from X4 HIV-1 IIIB strain (ImmunoDiagnostics Inc., Woburn, MA) and from R5 HIV-1 strains ADA and YU2 (ImmunoDiagnostics Inc.) were covalently immobilized on a CM5 sensor chip in 10 mM sodium acetate, pH 4.0, using standard amine coupling chemistry. The chip densities were 8200 resonance units (RUs), 10760 RUs and 9626 RUs, respectively. A reference flow cell was used as a control for non-specific binding and refractive index changes. All interaction studies were performed at 25°C on a Biacore T200 instrument (GE Healthcare, Uppsala, Sweden). The compounds LabyA1 and nisin were serially diluted in HBS-P (10 mM HEPES, 150 mM NaCl and 0,05% surfactant P20; pH 7.4) supplemented with 5% dimethyl sulfoxide (DMSO, Merck), and 10 mM CaCl2 covering a concentration range between 7.8 and 31.3 µM, by using two-fold dilution steps. Samples (in duplicate) were injected for 2 minutes at a flow rate of 45 µl/min and the dissociation was followed for 4 minutes. Several buffer blanks were used for double referencing. The CM5 sensor chip surface was regenerated with a single injection of 50 mM NaOH. A DMSO concentration series was included to eliminate the contribution of DMSO to the measured response. […] The experimental data were fit using the 1∶1 binding model Biacore T200 Evaluation software 1.0 to determine the binding kinetics.

PBMCs = assay: Bio-Plex cytokine/chemokine detection assay; assay type: cell-based; conditions: 24 h; 9.6 µM LabyA1 versus 0.078 µM PHA; 27-plex
Description: Freshly isolated PBMCs from 4 individual donors were incubated for 24 h with 9.6 µM LabyA1 or 0.078 µM PHA. The cytokine/chemokine concentration in the cell culture supernatant was determined by the Bio-Plex 200 System (Bio-Rad, Hercules, CA) using the Bio-Plex Human Cytokine 27-Plex assay as described earlier.

[3] = test system: HIV-1 NL4.3^AMD3100res. (X4); conditions: read-out: EC50 (µM ± SEM); MT-4 cells; NL4.3 resistant to AMD3100; MTS/PES
[4] = test system: HSV-1 wild-type RV-174 (clinical isolate); conditions: HEL cells; HSV-1 RV-174; CPE
[5] = test system: HSV-1 wild-type RV-175 (clinical isolate); conditions: HEL cells; HSV-1 RV-175; CPE
[6] = test system: HSV-1 TK^- RV-294 (clinical isolate); conditions: HEL cells, CPE
[7] = test system: HSV-2 wild-type G (reference strain); conditions: HEL cells; HSV-2 G; CPE
HSV-1 wild-type = conditions: read-out: Median EC50; median over HSV-1 wild-type strains; HEL cells
HSV-1 TK^- = conditions: read-out: Median EC50; median over HSV-1 TK- strains; HEL cells
HSV-2 wild-type = conditions: read-out: Median EC50; median over HSV-2 wild-type strains; HEL cells
CXCR4 = CXCR4 (Homo sapiens, UniProt P61073); assay: Anti-CXCR4 mAb binding on SupT1 cells (flow cytometry); parameters: endogenous in cells; host or cells: SupT1 T cells (ATCC)
Description: To determine the interaction of LabyA1 with CD4, SupT1 cells (100 µl; 3×10^6 cells/ml) were incubated for 20 min at 4°C with 9.6 µM, 1.9 µM or 0 µM LabyA1. After extensive washing with PBS/FCS2% (PBS supplemented with 2% FCS), anti-CD4-PE conjugated mAbs RPA-T4 (eBioscience, Vienna, Austria), MT441 (Ancell, Enzo Life sciences) and OKT-4 (eBioscience) were added for 30 min at 4°C. For aspecific background staining, cells were incubated with SimulTest™ Control (IgGγ1-FITC/IgGγ2a-PE) (BD Biosciences). After washing, and fixation with 1% formaldehyde solution, samples were analyzed using the FACSCalibur and CellQuest software (BD Biosciences). The same protocol was applied for anti-CXCR4 evaluation using the fluorochrome conjugated mAbs 12G5-PE and 2B11-FITC (both BD Biosciences).

T1 sequence (P51681 whole entry): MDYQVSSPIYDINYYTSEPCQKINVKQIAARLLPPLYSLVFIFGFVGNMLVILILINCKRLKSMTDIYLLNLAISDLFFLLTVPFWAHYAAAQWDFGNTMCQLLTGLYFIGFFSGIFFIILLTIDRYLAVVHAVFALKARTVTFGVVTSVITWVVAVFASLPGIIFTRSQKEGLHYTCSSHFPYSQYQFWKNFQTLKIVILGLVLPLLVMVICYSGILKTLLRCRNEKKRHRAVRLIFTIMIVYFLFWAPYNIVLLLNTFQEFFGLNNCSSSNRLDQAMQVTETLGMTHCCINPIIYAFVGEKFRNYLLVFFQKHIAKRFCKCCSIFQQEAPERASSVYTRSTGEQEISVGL
Chain of CXCR4 (P61073 whole entry): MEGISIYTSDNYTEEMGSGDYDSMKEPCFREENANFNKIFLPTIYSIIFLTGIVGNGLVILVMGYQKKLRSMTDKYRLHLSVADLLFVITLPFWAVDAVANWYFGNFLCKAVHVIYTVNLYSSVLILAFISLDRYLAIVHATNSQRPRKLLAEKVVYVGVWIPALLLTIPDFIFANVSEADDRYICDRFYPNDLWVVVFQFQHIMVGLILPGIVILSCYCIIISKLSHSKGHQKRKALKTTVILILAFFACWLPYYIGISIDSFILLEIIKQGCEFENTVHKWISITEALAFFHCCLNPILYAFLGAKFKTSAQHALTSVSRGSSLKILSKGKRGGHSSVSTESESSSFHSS

`C/C=C1\NC(=O)[C@H](Cc2ccccc2)NC(=O)[C@@H]2CCCN2C(=O)[C@H](C(C)C)NC(=O)[C@H](Cc2c[nH]c3ccccc23)NC(=O)[C@]23CSC[C@H](NC1=O)C(=O)N[C@H](C(=O)O)CSSC[C@H](NC(=O)[C@@H]1CSC[C@]4(C[C@H](N)C(=O)N[C@@H](CC(N)=O)C(=O)N[C@@H](C)C(=O)N4)C(=O)N[C@@H](C(C)C)C(=O)N[C@@H](Cc4c[nH]c5ccccc45)C(=O)N[C@@H](CCC(=O)O)C(=O)N1)C(=O)N[C@@H](C2)C(=O)N[C@@H]([C@@H](C)O)C(=O)NCC(=O)N3` [LabyA1, labyrinthopeptin A1] gave an EC50 (HIV-2 ROD (R5/X4)) of 1 ± 0.3 µM, an EC50 [1] of 1 ± 0.2 µM and an EC50 [2] of 1.5 ± 0.1 µM. The “induction of calcium signaling by compound itself” value (CCR5) was “could not induce by itself calcium signaling”, the “inhibition of LD78β (CCL3L1)-induced intracellular calcium flux” value (CCR5; 10 ng/ml LD78β) was “could also not inhibit the intracellular calcium flux” and the “% CPE after pre-incubation of cells and removal of compound” value (HIV-1 NL4.3) was 96.8±3.2 % CPE. For the same compound, the Kd (R5 HIV-1 gp120 ADA) was 12.3 ± 2.2 µM, the “cytokine/chemokine response of treated PBMCs” value (PBMCs) was “much weaker, if any” and the EC50 [3] was 2.4 ± 0.5 µM. For the same compound, the EC50 [4] was 2.7 ± 1 µM, the EC50 [5] was 2.8 ± 0.5 µM and the EC50 [6] was 0.31 µM. The EC50 [7] was 0.32 ± 0.05 µM, the EC50 (HSV-1 wild-type) was 1.6 µM and the EC50 (HSV-1 TK^-) was 1.9 µM. For the same compound, the EC50 (HSV-2 wild-type) was 0.41 µM, the “inhibition of binding of anti-CXCR4 mAb 12G5” value (CXCR4; SupT1 cells, 9.6 µM and 1.9 µM) was “unable to inhibit” and the “binding of anti-CXCR4 mAbs clone 12G5 and 2B11 to CXCR4” value (CXCR4; data not shown) was “did not affect the binding”.
